Molecular target: T1, human factor Xa (Homo sapiens, UniProt P00742)
T1 construct: 25 μl human factor Xa (Enzyme Research Laboratories, Inc; South Bend, Ind.) in TBS-PEG; purchased Enzyme Research Laboratories, Inc; South Bend, Ind
Experiment: Factor Xa assay (chromogenic, substrate S-2765)
Type: biochemical
Details: inhibition constant for inhibition of factor Xa; IC50 corrected for substrate competition; 0.5 nM enzyme, 140 μM S-2765, 25° C., pH 7.8; read-out: Ki(FXa)
Method: The ability of the compounds of the formula I to inhibit factor Xa or factor VIIa or other enzymes like thrombin, plasmin, or trypsin can be assessed by determining the concentration of the compound of the formula I that inhibits enzyme activity by 50%, i. e. the IC50 value, which was related to the inhibition constant Ki. Purified enzymes were used in chromogenic assays. The concentration of inhibitor that causes a 50% decrease in the rate of substrate hydrolysis was determined by linear regression after plotting the relative rates of hydrolysis (compared to the uninhibited control) versus the log of the concentration of the compound of formula I. For calculating the inhibition constant Ki, the IC50 value was corrected for competition with substrate using the formula Ki=IC50/{1+(substrate concentration/Km)} wherein Km is the Michaelis-Menten constant (Chen and Prusoff, Biochem. Pharmacol. 22 (1973), 3099-3108; I. H. Segal, Enzyme Kinetics, 1975, John Wiley & Sons, New York, 100-125; which were incorporated herein by reference). a) Factor Xa Assay
In the assay for determining the inhibition of factor Xa activity TBS-PEG buffer (50 mM Tris-HCl, pH 7.8, 200 mM NaCl, 0.05% (w/v) PEG-8000, 0.02% (w/v) NaN3) was used. The IC50 was determined by combining in appropriate wells of a Costar half-area microtiter plate 25 μl human factor Xa (Enzyme Research Laboratories, Inc.; South Bend, Ind.) in TBS-PEG; 40 μl 10% (v/v) DMSO in TBS-PEG (uninhibited control) or various concentrations of the compound to be tested diluted in 10% (v/v) DMSO in TBS-PEG; and substrate S-2765 (N(α)-benzyloxycarbonyl-D-Arg-Gly-L-Arg-p-nitroanilide; Kabi Pharmacia, Inc.; Franklin, Ohio) in TBS-PEG.
The assay was performed by pre-incubating the compound of formula I plus enzyme for 10 min. Then the assay was initiated by adding substrate to obtain a final volume of 100 μl. The initial velocity of chromogenic substrate hydrolysis was measured by the change in absorbance at 405 nm using a Biotek Instruments kinetic plate reader (Ceres UV900HDi) at 25° C. during the linear portion of the time course (usually 1.5 min after addition of substrate). The enzyme concentration was 0.5 nM and substrate concentration was 140 μM.

T1 sequence (P00742 235-488 limits assumed): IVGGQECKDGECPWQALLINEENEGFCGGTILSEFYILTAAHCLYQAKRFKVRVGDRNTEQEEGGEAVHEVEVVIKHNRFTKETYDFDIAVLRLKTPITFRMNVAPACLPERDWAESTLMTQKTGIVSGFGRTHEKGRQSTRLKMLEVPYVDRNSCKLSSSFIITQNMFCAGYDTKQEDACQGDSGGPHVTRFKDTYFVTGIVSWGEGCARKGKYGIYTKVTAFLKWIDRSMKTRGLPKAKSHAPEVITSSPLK
T1 sequence (P00742 41-179 partner limits assumed): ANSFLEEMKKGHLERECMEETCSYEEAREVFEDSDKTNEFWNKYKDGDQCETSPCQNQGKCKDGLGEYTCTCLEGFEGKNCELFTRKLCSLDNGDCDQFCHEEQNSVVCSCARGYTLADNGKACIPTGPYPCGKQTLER

Structure (SMILES)	Ki [nM]
CC(C)N1CCC(NC(=O)c2cc3[nH]c(=O)ccc3n2Cc2cc(-c3ccc(Cl)s3)on2)CC1 [Example 7, 1-[5-(5-Chloro-thiophen-2-yl)-isoxazol-3-ylmethyl]-5-oxo-4,5-dihydro-1H-pyrrolo[3,2-b]pyridine-2-carboxylic acid (1-isopropyl-piperidin-4-yl)-amide]	23
CC(C)N1CCC(NC(=O)c2cc3cc(C(=O)O)cnc3n2Cc2cc(-c3ccc(Cl)s3)on2)CC1 [Example 3, 1-[5-(5-Chloro-thiophen-2-yl)-isoxazol-3-ylmethyl]-2-(1-isopropyl-piperidin-4-ylcarbamoyl)-1H-pyrrolo[2,3-b]pyridine-5-carboxylic acid]	67
O=C(O)c1ccc2c(cc(C(=O)NC3CCN(c4ccncc4)CC3)n2Cc2cc(-c3ccc(Cl)s3)on2)n1 [Example 9, 1-[5-(5-Chloro-thiophen-2-yl)-isoxazol-3-ylmethyl]-2-(3,4,5,6-tetrahydro-2H-[1,4′]bipyridyl-4-ylcarbamoyl)-1H-pyrrolo[3,2-b]pyridine-5-carboxylic acid]	85
CC(C)N1CCC(NC(=O)c2cc3cc(OCCO)ncc3n2CC(=O)Nc2ccc(Cl)cn2)CC1 [Example 13, 1-[(5-Chloro-pyridin-2-ylcarbamoyl)-methyl]-5-(2-hydroxy-ethoxy)-1H-pyrrolo[2,3-c]pyridine-2-carboxylic acid (1-isopropyl-piperidin-4-yl)-amide]	44
CC(C)N1CCC(NC(=O)c2cc3cc(OCCO)ncc3n2Cc2cc(-c3ccc(Cl)s3)on2)CC1 [Example 11, 1-[5-(5-Chloro-thiophen-2-yl)-isoxazol-3-ylmethyl]-5-(2-hydroxy-ethoxy)-1H-pyrrolo[2,3-c]pyridine-2-carboxylic acid (1-isopropyl-piperidin-4-yl)-amide]	47
CC(C)N1CCC(NC(=O)c2cc3ncccc3n2Cc2cc(-c3ccc(Cl)s3)on2)CC1 [Example 5, 1-[5-(5-Chloro-thiophen-2-yl)-isoxazol-3-ylmethyl]-1H-pyrrolo[3,2-b]pyridine-2-carboxylic acid (1-isopropyl-piperidin-4-yl)-amide]	4
CC(C)N1CCC(NC(=O)c2cc3nc(C(=O)O)ccc3n2Cc2cc(-c3ccc(Cl)s3)on2)CC1 [Example 6, 1-[5-(5-Chloro-thiophen-2-yl)-isoxazol-3-ylmethyl]-2-(1-isopropyl-piperidin-4-ylcarbamoyl)-1H-pyrrolo[3,2-b]pyridine-5-carboxylic acid]	10
CC(C)N1CCC(NC(=O)c2cc3cccnc3n2Cc2cc(-c3ccc(Cl)s3)on2)CC1 [Example 1, 1-[5-(5-Chloro-thiophen-2-yl)-isoxazol-3-ylmethyl]-1H-pyrrolo[2,3-b]pyridine-2-carboxylic acid (1-isopropyl-piperidin-4-yl)-amide]	6
COC(=O)c1cnc2c(c1)cc(C(=O)NC1CCN(C(C)C)CC1)n2Cc1cc(-c2ccc(Cl)s2)on1 [Example 2, 1-[5-(5-Chloro-thiophen-2-yl)-isoxazol-3-ylmethyl]-2-(1-isopropyl-piperidin-4-ylcarbamoyl)-1H-pyrrolo[2,3-b]pyridine-5-carboxylic acid methyl ester]	55
CC(C)N1CCC(NC(=O)c2cc3cc(C(N)=O)cnc3n2Cc2cc(-c3ccc(Cl)s3)on2)CC1 [Example 4, 1-[5-(5-Chloro-thiophen-2-yl)-isoxazol-3-ylmethyl]-1H-pyrrolo[2,3-b]pyridine-2,5-dicarboxylic acid 5-amide 2-[(1-isopropyl-piperidin-4-yl)-amide]]	70

Source: US7317027B2, “Azaindole-derivatives as factor Xa inhibitors” (Sanofi-Aventis Deutschland GmbH, priority 2003, dated 2008)
